In patent US20240228488A1 (TAKEDA PHARMACEUTICAL COMPANY LIMITED, priority 2021, published 2024) one finds EC50 and IC90 data, which are given here for eight compounds.

Some results are limits rather than exact numbers.

Experiment [1] deals with human activated kallikrein enzyme (Homo sapiens, UniProt P03952). Kind of experiment: Plasma kallikrein inhibition, fluorogenic PFR-AMC substrate, 500 pM activated kallikrein format. It is filed as biochemical. The conditions noted are these: 500 pM activated kallikrein, 300 uM PFR-AMC, 30 min preincubation, 10 min reaction; read-out: Primary Dose Response Assay: Average EC50. The gist of the method:
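Fluorogenic readout (ex 380 / em 460 nm) after 10 min room-temperature reaction with 300 uM Pro-Phe-Arg-AMC substrate, following 30 min preincubation of inhibitors with 500 pM enzyme. Buffer: Tris pH 7.5, EDTA, NaCl, PEG-400, Triton X-100. Values given as EC50 ranges.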

Experiment [2] has as its target T1, plasma kallikrein (Homo sapiens, UniProt P03952).
T1 construct: from tissue
Kind of experiment: Neat human plasma assay, FXIIa contact pathway-activated, PFR-AMC substrate. It counts as biochemical. As to conditions: citrated human plasma 78% final, 10 nM human FXIIa, 100 μM PFR-AMC; read-out: Human Plasma Assay: IC90. In outline: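 Compound inhibition of plasma kallikrein measured as PFR-AMC (100 μM) cleavage rate over 5 min at room temperature in 78% citrated human plasma activated with 10 nM FXIIa (Tris pH 7.5 buffer). IC50/IC90 from 4-parameter fit of rate versus inhibitor concentration.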

T1 sequence (P03952 391-638 limits assumed): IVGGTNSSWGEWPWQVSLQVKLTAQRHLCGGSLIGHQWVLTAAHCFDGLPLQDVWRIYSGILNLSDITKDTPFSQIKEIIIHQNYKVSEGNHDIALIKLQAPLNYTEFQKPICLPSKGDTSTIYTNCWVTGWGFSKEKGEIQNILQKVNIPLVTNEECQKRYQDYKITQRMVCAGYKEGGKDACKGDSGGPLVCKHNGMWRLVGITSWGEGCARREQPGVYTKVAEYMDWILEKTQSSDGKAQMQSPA
T1 sequence (P03952 20-390 partner limits assumed): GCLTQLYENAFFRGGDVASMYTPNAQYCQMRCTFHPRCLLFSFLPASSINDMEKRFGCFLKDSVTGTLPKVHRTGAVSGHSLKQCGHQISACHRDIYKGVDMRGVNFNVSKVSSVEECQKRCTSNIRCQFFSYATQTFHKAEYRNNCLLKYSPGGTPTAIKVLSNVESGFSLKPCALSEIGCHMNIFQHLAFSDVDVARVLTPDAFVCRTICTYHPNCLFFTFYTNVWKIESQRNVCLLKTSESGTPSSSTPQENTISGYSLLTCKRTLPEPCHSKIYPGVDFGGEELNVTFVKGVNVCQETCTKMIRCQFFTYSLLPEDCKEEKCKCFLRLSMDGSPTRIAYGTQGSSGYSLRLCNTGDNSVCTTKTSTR
Sequence of human activated kallikrein enzyme (P03952 391-638 limits assumed): as the sequence (P03952 391-638 limits assumed) above
Sequence of human activated kallikrein enzyme (P03952 20-390 partner limits assumed): as the sequence (P03952 20-390 partner limits assumed) above

By EC50 is commonly meant the concentration needed to bring the measured effect to its halfway point. Usually IC90 stands for the point of the concentration-response curve where the effect stands at 90%. On to `O=C(Nc1nsc(NCc2cn3cc(C4CC4)ccc3n2)n1)[C@H]1C[C@@H]1c1cc(Cl)ccn1` (racemic) [Example 614], for which the 50% effective concentration (EC50) in experiment [1] was 0.001 to 0.01 µM. In addition, in experiment [2], the IC90 was in the range of 10 to 48 µM.
Regarding `Cc1ccnc([C@H]2C[C@@H]2C(=O)Nc2cc(NCc3cn4cc(C5CC5)cc(N5CC(=O)N(C)C5=O)c4n3)cnn2)n1` (racemic) [Example 617, rac-(1S*,2S*)—N-(5-(((6-cyclopropyl-8-(3-methyl-2,4-dioxoimidazolidin-1-yl)imidazo[1,2-a]pyridin-2-yl)methyl)amino)pyridazin-3-yl)-2-(4-methylpyrimidin-2-yl)cyclopropane-1-carboxamide], the EC50 in experiment [1] is less than 0.001 µM. The IC90 in experiment [2] is less than 0.4 µM.
On to `Cc1ccnc([C@H]2C[C@@H]2C(=O)Nc2cc(NCc3cn4cc(C5CC5)cc(N5CC(=O)N(C)C5=O)c4n3)cc(C(F)(F)F)n2)n1` (racemic) [Example 618, rac-(1S*,2S*)—N-(4-(((6-cyclopropyl-8-(3-methyl-2,4-dioxoimidazolidin-1-yl)imidazo[1,2-a]pyridin-2-yl)methyl)amino)-6-(trifluoromethyl)pyridin-2-yl)-2-(4-methylpyrimidin-2-yl)cyclopropane-1-carboxamide], for which, in experiment [1], the half-maximal effective concentration (EC50) was less than 0.001 µM. For the same compound, the 90% effect concentration (IC90) in experiment [2] lay within 0.4 to 1.5 µM.
For the compound `Cc1ccnc([C@H]2C[C@@H]2C(=O)Nc2cc(Cc3cn4cc(C5CC5)cc(N5CC(=O)N(C)C5=O)c4n3)ncn2)n1` (racemic) [Example 620, rac-(1S*,2S*)—N-(6-((6-cyclopropyl-8-(3-methyl-2,4-dioxoimidazolidin-1-yl)imidazo[1,2-a]pyridin-2-yl)methyl)pyrimidin-4-yl)-2-(4-methylpyrimidin-2-yl)cyclopropane-1-carboxamide], the EC50 in experiment [1] lay in the range of 0.001 to 0.01 µM. Besides, the IC90 in experiment [2] lay within 0.4 to 1.5 µM.
Consider `COCc1cnc(NC(=O)[C@H]2C[C@@H]2c2nccc(C)n2)nc1NCc1cn2cc(C3CC3)cc(N3CC(=O)N(C)C3=O)c2n1` (racemic) [Example 621, rac-(1S*,2S*)—N-(4-(((6-cyclopropyl-8-(3-methyl-2,4-dioxoimidazolidin-1-yl)imidazo[1,2-a]pyridin-2-yl)methyl)amino)-5-(methoxymethyl)pyrimidin-2-yl)-2-(4-methylpyrimidin-2-yl)cyclopropane-1-carboxamide], for which, in experiment [1], the EC50 was less than 0.001 µM. In addition, the IC90 in experiment [2] is less than 0.4 µM.
As to `Cc1ccnc([C@H]2C[C@@H]2C(=O)Nc2nc(Cl)nc(NCc3cn4cc(C5CC5)cc(N5CC(=O)N(C)C5=O)c4n3)n2)n1` (racemic) [Example 622, rac-(1S*,2S*)—N-(4-chloro-6-(((6-cyclopropyl-8-(3-methyl-2,4-dioxoimidazolidin-1-yl)imidazo[1,2-a]pyridin-2-yl)methyl)amino)-1,3,5-triazin-2-yl)-2-(4-methylpyrimidin-2-yl)cyclopropane-1-carboxamide], the EC50 in experiment [1] is less than 0.001 µM. The IC90 in experiment [2] was 0.4 to 1.5 µM.
Turning to `Cc1ccnc([C@H]2C[C@@H]2C(=O)Nc2ncnc(NCc3cn4cc(C5CC5)cc(N5CC(=O)N(C)C5=O)c4n3)n2)n1` (racemic) [Example 623, rac-(1S*,2S*)—N-(4-(((6-cyclopropyl-8-(3-methyl-2,4-dioxoimidazolidin-1-yl)imidazo[1,2-a]pyridin-2-yl)methyl)amino)-1,3,5-triazin-2-yl)-2-(4-methylpyrimidin-2-yl)cyclo propane-1-carboxamide], in experiment [1], the concentration for a half-maximal effect (EC50) was less than 0.001 µM. Further, the 90% effect concentration (IC90) in experiment [2] was less than 0.4 µM.
On to `Cc1ccnc([C@H]2C[C@@H]2C(=O)Nc2ncc(CO)c(NCc3cn4cc(C5CC5)cc(N5CC(=O)N(C)C5=O)c4n3)n2)n1` (racemic) [Example 627, rac-(1S*,2S*)—N-(4-(((6-cyclopropyl-8-(3-methyl-2,4-dioxoimidazolidin-1-yl)imidazo[1,2-a]pyridin-2-yl)methyl)amino)-5-(hydroxymethyl)pyrimidin-2-yl)-2-(4-methylpyrimidin-2-yl)cyclopropane-1-carboxamide], for which the concentration giving a half-maximal response (EC50) in experiment [1] was less than 0.001 µM. For the same compound, the IC90 in experiment [2] was less than 0.4 µM.
